Test results from patent US10206902B2, “Mono- or di-substituted indoles as dengue viral replication inhibitors” (priority 2014, dated 2019).

How the values were obtained:
DENV-2 16681 strain = assay: DENV-2 antiviral assay (eGFP-labelled virus in Vero cells); format: cell-based, Dengue virus; conditions: DENV-2 16681 eGFP, MOI 0.5, 3 days
Description: The antiviral activity of all the compounds of the invention was tested against DENV-2 16681 strain which was labeled with enhanced green fluorescent protein (eGPF). The culture medium consists of minimal essential medium supplemented with 2% of heat-inactivated fetal calf serum, 0.04% gentamycin (50 mg/mL) and 2 mM of L-glutamine. Vero cells, obtained from ECACC, were suspended in culture medium and 25 μL was added to 384-well plates (2500 cells/well), which already contain the antiviral compounds. Typically, these plates contain a 4-fold serial dilution of 9 dilution steps of the test compound at 200 times the final concentration in 100% DMSO (200 nL). In addition, each compound concentration is tested in quadruplicate (final concentration range: 25 μM-0.00038 μM). Finally, each plate contains wells which are assigned as virus controls (containing cells and virus in the absence of compound), cell controls (containing cells in the absence of virus and compound) and medium controls (containing medium in the absence of cells, virus and compounds). To the wells assigned as medium control, 25 μL of culture medium was added instead of Vero cells. Once the cells were added to the plates, the plates were incubated for 30 minutes at room temperature to allow the cells to distribute evenly within the wells. Next, the plates were incubated in a fully humidified incubator (37° C., 5% CO2) until the next day. Then, DENV-2 strain 16681, labeled with eGFP, was added at a multiplicity of infection (MOI) of 0.5. Therefore, 15 μL of virus suspension was added to all the wells containing test compound and to the wells assigned as virus control. In parallel, 15 μL of culture medium was added to the medium and cell controls. Next, the plates were incubated for 3 days in a fully humidified incubator (37° C., 5% CO2). At the day of the read out, the eGFP fluorescence was measured using an automated fluorescence microscope at 488 nm (blue laser). Using an in-house LIMS system, inhibition dose response curves for each compound were calculated and the half maximal effective concentration (EC50) was determined. Therefore, the percent inhibition (I) for every test concentration is calculated using the following formula: I=100*(ST−SCC)/(SVC−SCC); ST, SCC and SVC are the amount of eGFP signal in the test compound, cell control and virus control wells, respectively. The EC50 represents the concentration of a compound at which the virus replication is inhibited with 50%, as measured by a 50% reduction of the eGFP fluorescent intensity compared to the virus control. The EC50 is calculated using linear interpolation (Table 1).

[1] = tested on: DENV-3 strain H87 prototype; assay: Tetravalent RT-qPCR assay Protocol B, serotype 3; format: cell-based; conditions: Dengue virus, DENV3, 168 h, RT-qPCR serotype 3 H87, Vero cells, 7 days
Description: Vero cells (4×10^4) were seeded in 96-well plates. […] Following a 2 hour incubation period, the cell monolayer was washed 3 times with assay medium to remove residual, non-adsorbed virus and cultures were further incubated for either 4 days (DENV-2 NGC-Tongalike) or 7 days (DENV-1 Djibouti strain D1/H/IMTSSA/98/606, DENV-3 strain H87 prototype, DENV-4 strain H241′) in the presence of the inhibitor. Supernatant was harvested and viral RNA load was determined by real-time quantitative RT-PCR. The 50% effective concentration (EC50), which is defined as the compound concentration that is required to inhibit viral RNA replication by 50%, was determined using logarithmic interpolation (Tables 7 and 8). RNA was isolated from 100 μL supernatant with the NucleoSpin 96 Virus kit (Filter Service, Duren, Germany) as described by the manufacturer. The sequences of the TaqMan primers (DENV-For, DENV-Rev; Table 5) and TaqMan probes (DENV-Probe Table 5) were selected from non-structural gene 3 (NS3) or NS5, of the respective flaviviruses using Primer Express software (version 2.0; Applied Biosystems, Lennik, Belgium). The TaqMan probe was fluorescently labelled with 6-carboxyfluorescein (FAM) at the 5′ end as the reporter dye, and with minor groove binder (MGB) at the 3′ end as the quencher (Table 5). One-step, quantitative RT-PCR was performed in a total volume of 25 μL, containing 13.9375 μL H2O, 6.25 μL master mix (Eurogentec, Seraing, Belgium), 0.375 μL forward primer, 0.375 μL reverse primer, 1 μL probe, 0.0625 μL reverse transcriptase (Eurogentec) and 3 μL sample. RT-PCR was performed using the ABI 7500 Fast Real-Time PCR System (Applied Biosystems, Branchburg, N.J., USA) using the following conditions: 30 min at 48° C. and 10 min at 95° C., followed by 40 cycles of 15 s at 95° C. and 1 min at 60° C. The data was analyzed using the ABI PRISM 7500 SDS software (version 1.3.1; Applied Biosystems). For absolute quantification, standard curves were generated using 10-fold dilutions of template preparations of known concentrations.

Structure (SMILES) | EC50 (DENV-2 16681 strain) | EC50 [1]
COc1cc(NC(C(=O)c2c[nH]c3cc(F)ccc23)c2ccc(F)cc2OC)cc(OCCO)c1 (single isomer, unassigned) [Compound 1A, 1-(6-fluoro-1H-indol-3-yl)-2-(4-fluoro-2-methoxyphenyl)-2-((3-(2-hydroxyethoxy)-5-methoxyphenyl)amino)ethanone] | 3.8 nM | 53 nM
COc1cc(NC(C(=O)c2c[nH]c3c(C)c(F)ccc23)c2ccc(F)cc2OC)cc(OCCO)c1 (single isomer, unassigned) [Compound 2B, 2-(4-fluoro-2-methoxyphenyl)-1-(6-fluoro-7-methyl-1H-indol-3-yl)-2-((3-(2-hydroxyethoxy)-5-methoxyphenyl)amino)ethanone] | 2.2 nM | 42 nM
COc1cc(NC(C(=O)c2c[nH]c3c(C)c(Cl)ccc23)c2ccc(F)cc2OC)cc(OCCO)c1 (single isomer, unassigned) [Compound 3A, 1-(6-chloro-7-methyl-1H-indol-3-yl)-2-(4-fluoro-2-methoxyphenyl)-2-((3-(2-hydroxyethoxy)-5-methoxyphenyl)amino)ethanone] | 0.77 nM | 32 nM
COc1cc(NC(C(=O)c2c[nH]c3cc(Cl)ccc23)c2ccc(F)cc2OC)cc(OCCO)c1 (single isomer, unassigned) [Compound 4A, 1-(6-chloro-1H-indol-3-yl)-2-(4-fluoro-2-methoxyphenyl)-2-((3-(2-hydroxyethoxy)-5-methoxyphenyl)amino)ethanone] | 1.6 nM | 16 nM
COc1cc(NC(C(=O)c2c[nH]c3c(F)c(F)ccc23)c2ccc(F)cc2OC)cc(OCCO)c1 (single isomer, unassigned) [Compound 5B, 1-(6,7-difluoro-1H-indol-3-yl)-2-(4-fluoro-2-methoxyphenyl)-2-((3-(2-hydroxyethoxy)-5-methoxyphenyl)amino)ethanone] | 2.5 nM | 50 nM
COc1cc(NC(C(=O)c2c[nH]c3cc(OC)c(C)cc23)c2ccc(F)cc2OC)cc(OCCO)c1 (single isomer, unassigned) [Compound 6A, 2-(4-fluoro-2-methoxyphenyl)-2-((3-(2-hydroxyethoxy)-5-methoxyphenyl)amino)-1-(6-methoxy-5-methyl-1H-indol-3-yl)ethanone] | 2.7 nM | 20 nM
COc1cc(NC(C(=O)c2c[nH]c3cc(OC)c(F)cc23)c2ccc(F)cc2OC)cc(OCCO)c1 (single isomer, unassigned) [Compound 7A, 2-(4-fluoro-2-methoxyphenyl)-1-(5-fluoro-6-methoxy-1H-indol-3-yl)-2-((3-(2-hydroxyethoxy)-5-methoxyphenyl)amino)ethanone] | 4.6 nM | 41 nM
COc1cc(NC(C(=O)c2c[nH]c3c(Cl)c(OC)ccc23)c2ccc(F)cc2OC)cc(OCCO)c1 (single isomer, unassigned) [Compound 8A, 1-(7-chloro-6-methoxy-1H-indol-3-yl)-2-(4-fluoro-2-methoxyphenyl)-2-((3-(2-hydroxyethoxy)-5-methoxyphenyl)amino)ethanone] | 1 nM | 29 nM
COc1cc(NC(C(=O)c2c[nH]c3c(C)cc(F)cc23)c2ccc(F)cc2OC)cc(OCCO)c1 (single isomer, unassigned) [Compound 9B, 2-(4-fluoro-2-methoxyphenyl)-1-(5-fluoro-7-methyl-1H-indol-3-yl)-2-((3-(2-hydroxyethoxy)-5-methoxyphenyl)amino)ethanone] | 3.4 nM | 66 nM
COc1cc(NC(C(=O)c2c[nH]c3cc(F)c(F)cc23)c2ccc(F)cc2OC)cc(OCCO)c1 (single isomer, unassigned) [Compound 10B, 1-(5,6-difluoro-1H-indol-3-yl)-2-(4-fluoro-2-methoxy-phenyl)-2-((3-(2-hydroxyethoxy)-5-methoxyphenyl)amino)ethanone] | 2.7 nM | < 22 nM
COc1cc(NC(C(=O)c2c[nH]c3c(C)c(OC)ccc23)c2ccc(F)cc2OC)cc(OCCO)c1 (single isomer, unassigned) [Compound 11A, 2-(4-fluoro-2-methoxyphenyl)-2-((3-(2-hydroxyethoxy)-5-methoxyphenyl)amino)-1-(6-methoxy-7-methyl-1H-indol-3-yl)ethanone] | 0.81 nM | 40 nM
COc1cc(NC(C(=O)c2c[nH]c3c(F)cc(C)cc23)c2ccc(F)cc2OC)cc(OCCO)c1 (single isomer, unassigned) [Compound 12B, 2-(4-fluoro-2-methoxyphenyl)-1-(7-fluoro-5-methyl-1H-indol-3-yl)-2-((3-(2-hydroxyethoxy)-5-methoxyphenyl)amino)ethanone] | 5.1 nM | 77 nM
